Entries after “also recorded” stand apart in the source; their conditions may differ.
Assays:
SWISS mice = test: DIVE microscopy of fluorescent emission in CuATSM-treated vs untreated mice after F—NpCul injection (FIG. 5, FIG. 6); assay type: in vivo, mouse; details: 4 mg/kg F—NpCul i.v. tail vein, CuATSM 15 mg/kg orally daily for eight days
Procedure: (§1) In this work, anaesthetised SWISS mice underwent a craniotomy surgery to expose a region of parietal cortex. Imaging was performed through this cranial window with a water dipping objective lens. 4 mg/kg F—NpCul was i.v. injected through the tail vein after three minutes. F—NpCul was excited at 920 nm and emission was 504-577nm. “Treated” mice (n=3) were orally administered the copper-delivery compound CuATSM (15 mg/kg) daily for eight days to increase brain copper levels prior to imaging while control mice (n=3, “Untreated”) received no treatment. For each mouse at all time points, fluorescent emission per unit area (arbitrary units) from five representative regions of interest (ROIs) within vasculature and five ROIs in surrounding tissue was quantified from a projected image combining 130 μm depth. Baseline fluorescence from an image acquired prior to probe injection was subtracted from all fluorescent measurements which were then averaged at each time point. Comparison of average fluorescent emission intensity between control and CuATSM-treated mice was undertaken for a) brain tissue and b) vasculature. Unpaired t-tests with significance p<0.05 were performed to describe the temporal pattern of change. Error bars show mean ±SEM.
(§2) Anaesthetised SWISS mice underwent a craniotomy surgery to create a cranial window exposing parietal cortex. […]

mice = test: Observation of signs of toxicity in the in vivo studies; set-up: species or system mouse; details: in vivo imaging studies, 4 mg/kg F—NpCul
Procedure: as §1, §2

SH-SY5Y cells = test: Confocal microscopy of F—NpCul fluorescence in cells with copper loading or depletion (FIG. 4); assay type: cell-based, human
Procedure: SH-SY5Y cells were used, which are a human neuron-like cell line. SH-SY5Y cells were maintained at 37° C. in 5% CO2. Cells were cultured in Dulbecco's Modified Eagle's Medium (DMEM, Thermo Fisher Scientific) supplemented with 10% foetal calf serum (FCS, Thermo Fisher Scientific) and 2.5 mM L-glutamine (Sigma-Aldrich). Fluorobrite DMEM (FDMEM, Thermo Fisher Scientific) was supplemented with 10% FCS and 2.5 mM L-glutamine, unless otherwise stated.
For all imaging experiments, 1.5×10^5 cells were seeded into 35 mm glass bottom dishes (MatTek) and allowed to adhere overnight. 10 mM stock solutions of F—NpCul CuATSM were freshly prepared in DMSO. A 10 mM stock solution of BCS was freshly prepared in MilliQ water. For experiments cells were dosed with nothing (vehicle), 1 μL of 10 mM CuATSM stock in 1 mL DMEM or 10 μL of 10 mM BCS solution in 1 mL DMEM. […]
Images were obtained at 37° C. in a 5% CO2 atmosphere on an Olympus Fluo View FV3000 Confocal Laser Scanning Microscope, equipped with an Olympus 60× water objective (UPLSAPO60XW) and 405 and 640 nm lasers, unless otherwise stated. All samples were excited at 405 nm, and fluorescence emission collected from 510-610 nm. […] Data is presented as the mean fluorescence intensities of 40-50 cell clusters chosen as regions of interest from 10 images representative of each condition.

For `CCSCCN(CCSCC)Cc1cn(C(=O)OCCOCCNc2ccc3c4c(cccc24)C(=O)N(CCF)C3=O)cn1` [F—NpCul], the “reported copper levels within the vasculature, treated vs untreated mice” value (SWISS mice) was “equivalent”, the “fluorescent signal in brain tissue, CuATSM-treated vs untreated mice” value (SWISS mice; parietal cortex, excitation 920 nm, emission 504-577 nm) was “significantly higher; also recorded: Higher fluorescent signal is observed in CuATSM-treated mice compared to control” and the “signs of toxicity following F—NpCul exposure” value (mice) was “no signs of toxicity”. The “mean fluorescence intensity response to copper status” value (SH-SY5Y cells; 10 μM F—NpCul, cells treated with vehicle, 10 μM CuATSM (copper-loading) or 100 μM BCS (copper-depleting) for 1 h, P<0.001 v vehicle) was “sensitive to both an accumulation and a deficiency of copper” and the “bioavailability and cell uptake, reporting intracellular Cu(I) levels” value (SH-SY5Y cells; preliminary results) was “bioavailable and can be taken up by cells to report intracellular Cu(I) levels”.

Source: patent US20260000794A1, “IN VIVO TRANSITION METAL DETECTION” (The University of Sydney, priority 2022, published 2026)
